Tests used:
[1] = Drug excretion in Sprague-Dawley rat urine at 1 mg/ml/kg, iv dissolved in 10% HP-beta-CD by LC-MS/MS analysis; format: ADME, organism-based; details: 1 mg/kg, read-out: Drug excretion
[2] = Cmax in Sprague-Dawley rat at 30 mg/5 ml/kg, po dissolved in 40% HP-beta-CD; format: ADME, organism-based; design: dose 5 ml/kg, route oral; details: in vivo, 30 mg/kg
[3] = AUC (0 to 360 mins) in Sprague-Dawley rat at 30 mg/5 ml/kg, po dissolved in 40% HP-beta-CD by trapezoidal method; format: ADME, organism-based; design: time < 6 hr, dose 5 ml/kg, route oral; details: in vivo, 30 mg/kg
[4] = Volume of distribution at steady state in Sprague-Dawley rat at 1 mg/ml/kg, iv dissolved in 10% HP-beta-CD; format: ADME, organism-based; details: in vivo, 1 mg/kg, read-out: Vdss
[5] = Terminal half life in Sprague-Dawley rat at 1 mg/ml/kg, iv dissolved in 10% HP-beta-CD measured after 60 to 360 min after administration; format: ADME, organism-based; details: in vivo, 1 mg/kg
[6] = Tmax in Sprague-Dawley rat at 30 mg/5 ml/kg, po dissolved in 40% HP-beta-CD; format: ADME, organism-based; details: in vivo, 30 mg/kg
Bile acid receptor [7] = target: T1, Bile acid receptor (Homo sapiens, UniProt Q96RI1); experiment: Antagonist activity at human FXR expressed in Huh7 cells assessed as inhibition of CDCA-induced FXR response element driven luciferase activity after 24 hrs; format: cell-based
T1 sequence (Q96RI1 whole entry): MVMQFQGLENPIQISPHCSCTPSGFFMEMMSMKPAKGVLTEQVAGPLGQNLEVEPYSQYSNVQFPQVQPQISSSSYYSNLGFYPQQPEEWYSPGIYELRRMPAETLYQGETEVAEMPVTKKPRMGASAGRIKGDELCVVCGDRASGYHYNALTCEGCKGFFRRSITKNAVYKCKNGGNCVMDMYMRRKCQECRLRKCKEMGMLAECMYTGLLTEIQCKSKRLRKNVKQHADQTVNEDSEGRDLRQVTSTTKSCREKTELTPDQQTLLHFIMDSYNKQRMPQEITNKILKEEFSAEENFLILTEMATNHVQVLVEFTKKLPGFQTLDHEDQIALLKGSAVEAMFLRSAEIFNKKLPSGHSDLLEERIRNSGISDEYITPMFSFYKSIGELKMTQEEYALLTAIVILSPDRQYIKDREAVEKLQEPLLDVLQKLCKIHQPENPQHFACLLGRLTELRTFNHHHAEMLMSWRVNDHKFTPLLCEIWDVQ

[8] = Oral bioavailability in Sprague-Dawley rat at 30 mg/5 ml/kg dissolved in 40% HP-beta-CD; format: ADME, organism-based; details: in vivo, 30 mg/kg
[9] = Drug concentration in liver of Sprague-Dawley rat at 30 mg/kg, po dissolved in 40% HP-beta-CD measured after 360 mins by LC-MS/MS analysis; format: ADME, organism-based; details: read-out: Drug uptake
[10] = AUC (0 to 360 mins) in Sprague-Dawley rat at 1 mg/ml/kg, iv dissolved in 10% HP-beta-CD by LC-MS/MS analysis; format: ADME, organism-based; design: dose 1 mg/ml/kg, time < 6 hr, route intravenous; details: in vivo, 1 mg/kg
[11] = Drug concentration in ileum of Sprague-Dawley rat at 30 mg/kg, po dissolved in 40% HP-beta-CD measured after 360 mins by LC-MS/MS analysis; format: ADME, organism-based; details: read-out: Drug uptake
Bile acid receptor [12] = target: T1, Bile acid receptor; experiment: Antagonist activity at GST-tagged FXR LBD (unknown origin) assessed as inhibition of GW4064-induced fluorecein-labeled SRC2-2 coactivator recruitment by Lanthascreen TR-FRET assay
Huh-7 = experiment: Cytotoxicity against human HuH7 cells assessed as reduction in cell viability incubated for 24 hrs by MTT assay; format: cell-based; details: Huh-7, 24 h
[13] = Ratio of drug concentration in liver to plasma of Sprague-Dawley rat at 30 mg/kg, po dissolved in 40% HP-beta-CD measured after 360 mins by LC-MS/MS analysis; format: ADME, organism-based
[14] = Ratio of drug concentration in ileum to plasma of Sprague-Dawley rat at 30 mg/kg, po dissolved in 40% HP-beta-CD measured after 360 mins by LC-MS/MS analysis; format: ADME, organism-based

Row | IC50 (Bile acid receptor [7]) | IC50 (Bile acid receptor [12]) | Compound | IC50 (Huh-7) | also measured
1 | < 0.001 nM | – | Cc1ccc2nc([C@H](CC3CCN(C(=O)C(C)C)CC3)N3C(=O)CN(c4ccc(Oc5ccccc5)cc4)C3=O)n(C)c2c1 | – | dose excreted [1]: 0.64%; Cmax [2]: 53.4 ng/mL; AUC(0-t) at 6 h [3]: 146 ng·h/mL; Vd [4]: 8.9 L/kg; half-life ([5]; read-out: beta t1/2): 2.07 h; Tmax [6]: 0.5 h; bioavailability [8]: 2.76%; concentration at 6 h [9]: 225 ng/g; AUC(0-t) at 6 h [10]: 182 ng·h/mL; concentration at 6 h [11]: 135 ng/g
2 | 1100 nM | 2800 nM | CCN(CC)C(=O)c1ccc(C[C@@H](c2nc3ccc(C)cc3n2C)N2C(=O)CN(c3ccc(Oc4ccccc4)cc3)C2=O)cc1 | > 100000 nM | –
3 | 0.05 nM | 35 nM | Cc1ccc2nc([C@H](CC3CCN(C(=O)C(C)C)CC3)N3C(=O)CN(c4ccc(Oc5ccc(F)cc5)cc4)C3=O)n(C)c2c1 | > 100000 nM | –
4 | 781 nM | 7100 nM | Cc1ccc2nc([C@H](Cc3ccc(C#N)cc3)N3C(=O)CN(c4ccc(Oc5ccccc5)cc4)C3=O)n(C)c2c1 | > 100000 nM | –
5 | 59.8 nM | 126000 nM | Cc1ccc2nc([C@H](CC3CCN(S(=O)(=O)C(C)C)CC3)N3C(=O)CN(c4ccc(Oc5ccccc5)cc4)C3=O)n(C)c2c1 | > 100000 nM | –
6 | > 20000 nM | > 400000 nM | Cc1ccc2nc([C@H](Cc3ccc(Cl)cc3)N3C(=O)CN(c4ccc(Oc5ccccc5)cc4)C3=O)n(C)c2c1 | > 100000 nM | –
7 | 81 nM | > 400000 nM | Cc1ccc2nc([C@H](Cc3ccccc3)N3C(=O)CN(c4ccc(Oc5ccccc5)cc4)C3=O)n(C)c2c1 | > 100000 nM | –
8 | > 20000 nM | > 400000 nM | Cc1ccc2nc([C@H](CC3CCN(C(=O)C(C)C)CC3)NC(=O)Nc3ccc(Oc4ccccc4)cc3)n(C)c2c1 | > 100000 nM | –
9 | 41 nM | 2700 nM | Cc1ccc2nc([C@@H](CC3CCN(C(=O)C(C)C)CC3)N3C(=O)CN(c4ccc(Oc5ccccc5)cc4)C3=O)n(C)c2c1 | > 100000 nM | –
10 | > 20000 nM | > 400000 nM | Cc1ccc2nc([C@H](CC3CCN(C(=O)C(C)C)CC3)NC(=O)c3ccc(Oc4ccccc4)cc3)n(C)c2c1 | > 100000 nM | –
11 | 18.3 nM | 1500 nM | Cc1ccc2nc([C@H](CC3CCN(C(=O)NC(C)C)CC3)N3C(=O)CN(c4ccc(Oc5ccccc5)cc4)C3=O)n(C)c2c1 | > 100000 nM | –
12 | 859 nM | 15000 nM | Cc1ccc2nc([C@H](CC3CCN(C(=O)C(C)C)CC3)N3CC(=O)N(c4ccc(Oc5ccccc5)cc4)CC3=O)n(C)c2c1 | > 100000 nM | –
13 | 6240 nM | 27300 nM | Cc1ccc2nc([C@H](Cc3ccc(C(N)=O)cc3)N3C(=O)CN(c4ccc(Oc5ccccc5)cc4)C3=O)n(C)c2c1 | > 100000 nM | –
14 | 2.4 nM | 330 nM | Cc1ccc2nc([C@H](CC3CCN(C(=O)C(C)C)CC3)N3C(=O)CN(c4ccc(Oc5ccccc5)cc4)C3=O)n(CC(C)C)c2c1 | > 100000 nM | –
15 | 799 nM | 4800 nM | Cc1ccc2nc([C@H](CC3CCN(C(=O)C(C)C)CC3)N3CCN(c4ccc(Oc5ccccc5)cc4)C3=O)n(C)c2c1 | > 100000 nM | –
16 | < 0.001 nM | 7 nM | COc1ccc(Oc2ccc(N3CC(=O)N([C@@H](CC4CCN(C(=O)C(C)C)CC4)c4nc5ccc(C)cc5n4C)C3=O)cc2)cc1 | > 100000 nM | dose excreted [1]: 0.23%; Kp at 6 h [13]: 15; AUC(0-t) at 6 h [3]: 1580 ng·h/mL; Kp at 6 h [14]: 13; Vd [4]: 3.86 L/kg; half-life [5]: 1.37 h; Tmax [6]: 2 h; concentration at 6 h [9]: 1540 ng/g; AUC(0-t) at 6 h [10]: 292 ng·h/mL; concentration at 6 h [11]: 1370 ng/g
17 | 978 nM | 2900 nM | Cc1ccc2nc([C@H](CC3CCN(C(=O)C(C)C)CC3)N3C(=O)CN(c4ccc(Oc5ccccc5)cc4)C3=O)n(-c3ccc(F)cc3)c2c1 | > 100000 nM | –
18 | 9.3 nM | 27 nM | Cc1ccc2nc([C@H](CC3CCN(C(=O)C(C)C)CC3)N3C(=O)CN(c4ccc(Oc5ccc(Cl)cc5)cc4)C3=O)n(C)c2c1 | > 100000 nM | –
19 | < 0.001 nM | 51 nM | Cc1ccc2c(c1)nc([C@H](CC1CCN(C(=O)C(C)C)CC1)N1C(=O)CN(c3ccc(Oc4ccccc4)cc3)C1=O)n2C | > 100000 nM | –
20 | 2690 nM | 38700 nM | Cc1ccc2nc([C@H](Cc3ccc(C(=O)NC(C)C)cc3)N3C(=O)CN(c4ccc(Oc5ccccc5)cc4)C3=O)n(C)c2c1 | > 100000 nM | –
21 | 53 nM | 180 nM | Cc1ccc2nc([C@H](CC3CCN(C(=O)C(C)C)CC3)N3C(=O)CN(c4ccc(OC5CCCCC5)cc4)C3=O)n(C)c2c1 | 64300 nM | –

Reference: ChEMBL document CHEMBL4340545, “Identification of potent farnesoid X receptor (FXR) antagonist showing favorable PK profile and distribution toward target tissues: Comprehensive understanding of structure-activity relationship of FXR antagonists” (Bioorg Med Chem, 2019)
